In this test the target is T1, h-GABAA α2β2γ1 (Homo sapiens, UniProt P47869+Q8N1C3).
T1 sequence (P47869 29-451): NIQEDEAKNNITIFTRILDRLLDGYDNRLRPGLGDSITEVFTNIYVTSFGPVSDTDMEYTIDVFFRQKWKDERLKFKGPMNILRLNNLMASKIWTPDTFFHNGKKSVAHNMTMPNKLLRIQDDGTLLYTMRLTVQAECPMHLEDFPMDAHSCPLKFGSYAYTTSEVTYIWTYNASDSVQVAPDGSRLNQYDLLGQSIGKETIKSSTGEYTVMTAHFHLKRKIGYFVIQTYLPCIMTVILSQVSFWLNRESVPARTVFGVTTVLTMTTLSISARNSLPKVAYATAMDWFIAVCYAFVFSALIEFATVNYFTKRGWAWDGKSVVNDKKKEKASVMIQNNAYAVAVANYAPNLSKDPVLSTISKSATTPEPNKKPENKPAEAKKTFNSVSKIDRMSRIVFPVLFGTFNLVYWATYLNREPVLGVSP
T1 sequence (P47870 25-512 partner limits assumed): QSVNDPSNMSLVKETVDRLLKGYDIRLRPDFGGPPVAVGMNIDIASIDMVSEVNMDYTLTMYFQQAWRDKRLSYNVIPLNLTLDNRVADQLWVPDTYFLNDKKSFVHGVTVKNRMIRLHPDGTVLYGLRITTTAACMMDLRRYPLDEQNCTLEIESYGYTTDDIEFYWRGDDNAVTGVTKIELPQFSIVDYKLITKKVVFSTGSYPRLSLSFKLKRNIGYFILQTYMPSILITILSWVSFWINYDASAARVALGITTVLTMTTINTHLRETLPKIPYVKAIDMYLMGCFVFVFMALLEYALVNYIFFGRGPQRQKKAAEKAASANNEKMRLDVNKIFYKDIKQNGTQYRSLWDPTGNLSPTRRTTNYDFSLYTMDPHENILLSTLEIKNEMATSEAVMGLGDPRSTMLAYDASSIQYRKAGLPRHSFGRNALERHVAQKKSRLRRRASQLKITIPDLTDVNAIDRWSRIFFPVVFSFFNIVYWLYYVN
T1 sequence (Q8N1C3 36-465): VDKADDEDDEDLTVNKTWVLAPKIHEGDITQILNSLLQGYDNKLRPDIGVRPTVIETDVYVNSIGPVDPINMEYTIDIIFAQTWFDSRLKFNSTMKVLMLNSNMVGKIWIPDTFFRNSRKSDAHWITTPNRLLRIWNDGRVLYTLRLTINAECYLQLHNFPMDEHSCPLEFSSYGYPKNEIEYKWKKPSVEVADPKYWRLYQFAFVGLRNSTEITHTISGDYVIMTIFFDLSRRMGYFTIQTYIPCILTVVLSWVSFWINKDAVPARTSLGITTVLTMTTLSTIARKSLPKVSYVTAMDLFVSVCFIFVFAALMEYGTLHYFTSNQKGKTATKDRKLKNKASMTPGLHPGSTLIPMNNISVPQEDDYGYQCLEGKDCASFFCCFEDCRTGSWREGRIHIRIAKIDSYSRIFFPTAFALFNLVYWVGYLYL
Put plainly: Two-electrode voltage clamp electrophysiology in Xenopus oocytes, modulation of GABA EC20 current. The note with it: Table 2; for Efficacy (GABA)%: % modulation of GABA EC20 = 100*(Fold increase−1), compound at approx. 30-fold Ki; for Fold increase h-GABA-A α2β2γ1 oocyte @ 30-fold Ki: compound at approx. 30-fold its Ki α2β2γ1, GABA EC20, Xenopus oocytes. On the set-up: host or cells: Xenopus laevis oocytes, RNA micro-injection. The test is classed as cell-based. The essentials:
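Oocytes injected with receptor subunit mRNA were recorded 3–5 days later by two-electrode voltage clamp at −80 mV, room temperature, pH 7.4. Compound was applied during a second GABA EC20 pulse, with at least 3 oocytes per concentration. Efficacy is the ratio-trace extremum, expressed as % modulation of GABA EC20.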
Background: Two-electrode voltage clamp is typically applied to oocytes expressing channels or transporters.

Take `Cc1nnc2n1-c1ccc(C3CC3)c(Cl)c1C(c1c(F)cccc1F)=NC2` [Example 6, 7-chloro-8-cyclopropyl-6-(2,6-difluorophenyl)-1-methyl-4H-[1,2,4]triazolo[4,3-a][1,4]benzodiazepine]: the “Efficacy (GABA)%” value was determined as 106% and the “Fold increase h-GABA-A α2β2γ1 oocyte @ 30-fold Ki” value is reported as 2.06.
As for `Cc1nnc2n1-c1ccc(I)c(Cl)c1C(c1c(F)cccc1F)=NC2` [Example 41, 7-chloro-6-(2,6-difluorophenyl)-8-iodo-1-methyl-4H-[1,2,4]triazolo[4,3-a][1,4]benzodiazepine], the “Efficacy (GABA)%” value turned out to be 70% and the “Fold increase h-GABA-A α2β2γ1 oocyte @ 30-fold Ki” value was 1.70.
As for `Fc1cccnc1C1=NCc2nncn2-c2ccc(Br)c(Cl)c21` [Example 29, 8-bromo-7-chloro-6-(3-fluoro-2-pyridyl)-4H-[1,2,4]triazolo[4,3-a][1,4]benzodiazepine], the “Efficacy (GABA)%” value stood at 105% and the “Fold increase h-GABA-A α2β2γ1 oocyte @ 30-fold Ki” value turned out to be 2.05.
As to `Fc1cccc(F)c1C1=NCc2nnc(-c3cccnn3)n2-c2ccc(I)c(Cl)c21` [Example 39, 7-chloro-6-(2,6-difluorophenyl)-8-iodo-1-pyridazin-3-yl-4H-[1,2,4]triazolo[4,3-a][1,4]benzodiazepine], the “Efficacy (GABA)%” value is given as 133% and the “Fold increase h-GABA-A α2β2γ1 oocyte @ 30-fold Ki” value is reported as 2.33.
Take `Cn1cc(-c2nnc3n2-c2ccc(C(F)(F)F)c(Cl)c2C(c2ncccc2F)=NC3)cn1` [Example 70, 7-chloro-6-(3-fluoro-2-pyridyl)-1-(1-methylpyrazol-4-yl)-8-(trifluoromethyl)-4H-[1,2,4]triazolo[4,3-a][1,4]benzodiazepine]: the “Efficacy (GABA)%” value is 78% and the “Fold increase h-GABA-A α2β2γ1 oocyte @ 30-fold Ki” value was 1.78.
As for `COCCc1nnc2n1-c1ccc(Cl)c(Cl)c1C(c1c(F)cccc1F)=NC2` [Example 19, 7,8-dichloro-6-(2,6-difluorophenyl)-1-(2-methoxyethyl)-4H-[1,2,4]triazolo[4,3-a][1,4]benzodiazepine], the “Efficacy (GABA)%” value came out at 72% and the “Fold increase h-GABA-A α2β2γ1 oocyte @ 30-fold Ki” value came out at 1.72.
Turning to `Fc1cccc(F)c1C1=NCc2nnc(-c3ccncn3)n2-c2ccc(Cl)c(Cl)c21` [Example 12, 7,8-dichloro-6-(2,6-difluorophenyl)-1-pyrimidin-4-yl-4H-[1,2,4]triazolo[4,3-a][1,4]benzodiazepine], the “Efficacy (GABA)%” value is listed as 49% and the “Fold increase h-GABA-A α2β2γ1 oocyte @ 30-fold Ki” value is on record as 1.49.
For `COc1ccc2c(c1Cl)C(c1c(F)cccc1F)=NCc1nnc(C3CC3)n1-2` [Example 79, 7-chloro-1-cyclopropyl-6-(2,6-difluorophenyl)-8-methoxy-4H-[1,2,4]triazolo[4,3-a][1,4]benzodiazepine], the “Efficacy (GABA)%” value is recorded as 79% and the “Fold increase h-GABA-A α2β2γ1 oocyte @ 30-fold Ki” value amounted to 1.79.
For the molecule `COc1ccc2c(c1Cl)C(c1c(F)cccc1F)=NCc1nnc(-c3cccnn3)n1-2` [Example 57, 7-chloro-6-(2,6-difluorophenyl)-8-methoxy-1-pyridazin-3-yl-4H-[1,2,4]triazolo[4,3-a][1,4]benzodiazepine], the “Efficacy (GABA)%” value was found to be 149% and the “Fold increase h-GABA-A α2β2γ1 oocyte @ 30-fold Ki” value is 2.49.
On to `Fc1cccc(F)c1C1=NCc2nnc(-c3ccncn3)n2-c2ccc(Br)c(Br)c21` [Example 43, 7,8-dibromo-6-(2,6-difluorophenyl)-1-pyrimidin-4-yl-4H-[1,2,4]triazolo[4,3-a][1,4]benzodiazepine], for which the “Efficacy (GABA)%” value was 23% and the “Fold increase h-GABA-A α2β2γ1 oocyte @ 30-fold Ki” value came out at 1.23.
Turning to `Fc1cccnc1C1=NCc2nnc(-c3cccnn3)n2-c2ccc(Cl)c(Cl)c21` [Example 54, 7,8-dichloro-6-(3-fluoro-2-pyridyl)-1-pyridazin-3-yl-4H-[1,2,4]triazolo[4,3-a][1,4]benzodiazepine], the “Efficacy (GABA)%” value is given as 602% and the “Fold increase h-GABA-A α2β2γ1 oocyte @ 30-fold Ki” value stood at 7.02.

The values above are taken from patent US20230141603A1, “BENZODIAZEPINE DERIVATIVES AS GABA A GAMMA1 PAM” (Hoffmann-La Roche Inc., priority 2021, published 2023).
